The source of these data is patent US20230389546A1, “ANTIMICROBIAL COMPOSITION” (The Procter & Gamble Company, priority 2022, published 2023).

The structures appear in SMILES notation.

One test deals with Gram Negative bacteria. Nature of the test: Surface Antimicrobial Kill Testing, normalized to triclosan internal standard, gram negative. It is filed as cell-based, K. pneumonia (Kp) / P. aeruginosa (Pa). To be noted: for antimicrobial benefit in words, gram-negative: Table 2B formulas. On the procedure:
(§1) Inoculum is prepared by streaking microorganism onto a Tryptic Soy Agar (TSA) plate and incubating for 24 h at 33° C. Plated bacteria is resuspended in saline until the transmittance percentage falls within the accepted range for ˜10^8 cfu/mL. For K. pneumonia (Kp) and P. aeruginosa (Pa), this is 31.00-33.00% T. For S. aureus (Sa) this is 23.00-25.00% T. A 10× concentration is made by spinning down the prepared inoculum, removing the supernatant saline from the bacterial pellet, then resuspending the pellet in 1/10th of the original volume of saline. The final inoculum is prepared with 5% of “soil” in the form of Fetal Bovine Serum (FBS). A 18×18 mm sterile glass coverslip is placed into an appropriate container (e.g., petri dish). 20 μL of prepared inoculum is added to the glass coverslip. Inoculum is then air-dried for 30 minutes in a 36° C. incubator. After drying, 40 μL of test sample is added on top of the dried inoculum. This is incubated at room temperature for the desired contact time. 5 mL of neutralizing media (Modified Letheen Broth+Tween+Lecithin (MLBTL)) is added to the coverslip and shaken on an orbital shaker for 5 minutes to ensure proper neutralization and extraction. Viability is then assessed of the neutralized and extracted sample by traditional/alternative microbiological techniques. The normalized antimicrobial activity reported in the performance examples below was generated from detection time data obtained as described in the Surface Antimicrobial Kill Test Method. To account for day-to-day variability an internal standard was tested with each series. The internal standard was a composition of 0.25 wt % Triclosan, Sigma Aldrich (St. Louis, MO, USA; CAS #3380-34-5, 97.0-103.0% (active substance, GC)), 50 wt % DMSO, and 49.75 wt % H2O, with a final solution pH of 7.7. Normalized activity is reported following the equation 1 below. Normalized Activity=(αΔDT−βΔDT)/(γΔDT−βΔDT) equation 1. where, αΔDT is the average detection time of the antimicrobial compound, and γΔDT is the average detection time of the reference triclosan internal standard, and βΔDT is the average detection time of the background unperturbed bacteria. Modified amino acids of the present disclosure were tested as aqueous solutions in the Surface Antimicrobial Kill Testing Method above. To prepare test solutions modified amino acids were first dissolved in the appropriate solvent. Second the selected surfactant is added to the mixture. After vortex (1 min, Vortex-2 Genie, vortex speed 8) mixing, the samples were then diluted with ½ portion of reverse osmosis water (RO water, Millipore Direct-Q™, pH 6). The aqueous solution was then vortexed (1 min, Vortex-2 Genie, vortex speed 8), to which the second ½ portion of water is added. The pH of the solution was then adjusted to the target pH using either 1N HCl, Glacial Acetic Acid, or 1N NaOH. The final solution was then vortexed (1 min, Vortex-2 Genie, vortex speed 8). An example batch sheet is provided below in Table 1. In Performance Examples 1-5 below, formulations comprising solvent, surfactant, and antimicrobial agents according to the present disclosure (e.g., based on modified amino acid amides), are evaluated via microbial surface kill tests according to the Surface Antimicrobial Kill Testing Method provided above. After treatment, microbial growth is referenced and reported to a triclosan sample and unaltered microbes according to the Normalization of Antimicrobial Activity provided above.

In another test the test system is Gram Positive bacteria. Nature of the test: Surface Antimicrobial Kill Testing, normalized to triclosan internal standard, gram positive. To be noted: for antimicrobial benefit in words, gram-positive: Table 2B formulas. It is filed as cell-based, S. aureus (Sa). On the procedure:
as §1

Setting [1] is: Table 2B, compound 0.5 wt %, DPGME 5 wt %, Surfonic L24-9 1 wt %, 0.1M Acetic acid buffer pH 4.5.
Where [2] appears, read: Table 3B, compound 0.5 wt %, DPGME 5 wt %, Surfonic L24-9 1 wt %, 0.1M Acetic acid buffer pH 4.5.
[3] abbreviates: 0.5 wt %, 5 wt % DPGME, water, pH 4.5, EH6 1 wt %.
Setting [4] is: 0.5 wt %, 5 wt % DPGME, water, pH 4.5, Miranol Ultra 1 wt %.
Setting [5] is: 0.5 wt %, 5 wt % DPGME, water, pH 4.5, Plantaren 2000 1 wt %.
Where [6] appears, read: 0.5 wt %, 5 wt % DPGME, water, pH 4.5, Surfonic L24-9 1 wt %.
The mark [7] stands for this setting: 0.5 wt %, 5 wt % DPGME, water, pH 4.5, Tween 80 1 wt %.
[8] abbreviates: 0.5 wt %, 5 wt % DPGME, water, pH 9, Miranol Ultra 1 wt %.
The mark [9] stands for this setting: 0.5 wt %, 5 wt % DPGME, water, pH 9, SLS 1 wt %.
Setting [10] is: 0.5 wt %, 5 wt % DPGME, water, pH 9, Surfonic L24-9 1 wt %.
Where [11] appears, read: Table 4, variety of surfactants.

For `CCN(C(=O)C(N)Cc1ccccc1)C1CCCCC1` (stereo not drawn) [Synthetic Example 6], the “antimicrobial benefit in words, gram-negative” value in the test with Gram Negative bacteria is given as “demonstrate meaningful gram-negative activity”. Besides, the “Gram Negative Referenced Microbial Activity” value in the test on Gram Negative bacteria (setting [1]) is listed as 2.7. For the same compound, the “Gram Positive Referenced Microbial Activity” value in the test with Gram Positive bacteria (setting [1]) is 0.2.

Regarding `CCCCCCCCNC(=O)[C@@H](N)Cc1ccccc1` [Synthetic Example 5], in the test with Gram Negative bacteria, the “antimicrobial benefit in words, gram-negative” value was “demonstrate meaningful gram-negative activity”. In addition, in the test with Gram Negative bacteria (setting [1]), the “Gram Negative Referenced Microbial Activity” value is listed as not below 3.9. For the same compound, the “antimicrobial benefit in words, gram-positive” value with Gram Positive bacteria was “shows improvement against gram-negative and gram-positive bacteria”. The “Gram Positive Referenced Microbial Activity” value in the test with Gram Positive bacteria (setting [1]) amounted to 0.7.

With `CCCCCCNC(=O)[C@@H](N)Cc1c[nH]c2ccccc12` [Synthetic Example 1], the “Gram Negative Referenced Microbial Activity” value in the test on Gram Negative bacteria (setting [2]) is 2.2. The “Gram Positive Referenced Microbial Activity” value in the test on Gram Positive bacteria (setting [2]) is recorded as 0.3.

Turning to `CCCCCCCCCCCCNC(=O)[C@@H](N)Cc1ccccc1` [Synthetic Example 7], the “antimicrobial benefit in words, gram-negative” value with Gram Negative bacteria is on record as “fail to show any meaningful benefit”. The “Gram Negative Referenced Microbial Activity” value with Gram Negative bacteria (setting [1]) stood at 0.1. Moreover, in the test on Gram Positive bacteria, the “antimicrobial benefit in words, gram-positive” value is recorded as “fail to show any meaningful benefit”. Also, the “Gram Positive Referenced Microbial Activity” value in the test on Gram Positive bacteria (setting [1]) was 0.1.

With `CCCCCCCCCNC(=O)[C@@H](N)Cc1c[nH]c2ccccc12` [Synthetic Example 3], the “Gram Negative Referenced Microbial Activity” value in the test on Gram Negative bacteria (setting [2]) turned out to be 2.2. In the test on Gram Positive bacteria (setting [2]), the “Gram Positive Referenced Microbial Activity” value was found to be 0.3.

As to `CN(C)C(=O)[C@H](N)Cc1ccccc1` [Comparative Example C1, reference compound], the “antimicrobial benefit in words, gram-negative” value in the test on Gram Negative bacteria is recorded as “fail to show any meaningful benefit”. In addition, in the test on Gram Negative bacteria (setting [1]), the “Gram Negative Referenced Microbial Activity” value was determined as 0.2. Moreover, the “antimicrobial benefit in words, gram-positive” value in the test with Gram Positive bacteria is given as “fail to show any meaningful benefit”. In the test on Gram Positive bacteria (setting [1]), the “Gram Positive Referenced Microbial Activity” value amounted to 0.1.

With `CCCCCCCCNC(=O)[C@@H](N)Cc1c[nH]c2ccccc12` [Synthetic Example 2], the “Gram Negative Referenced Microbial Activity” value is not below 4.9 in the test with Gram Negative bacteria (setting [3]); not below 4.9 in the test with Gram Negative bacteria (setting [4]); not below 4.9 with Gram Negative bacteria (setting [5]); 2.5 in the test with Gram Negative bacteria (setting [6]); not below 4.9 in the test on Gram Negative bacteria (setting [7]); 0.1 in the test on Gram Negative bacteria (setting [8]). Besides, the “Gram Negative Referenced Microbial Activity” value with Gram Negative bacteria (setting [9]) is 0.0; in the test with Gram Negative bacteria (setting [10]) it was 0.7; in the test on Gram Negative bacteria (setting [2]), 2.5. Further, the “pH cutoff of antimicrobial efficacy” value in the test with Gram Negative bacteria (Table 4, gram negative and gram positive) is given as “cutoff at pH 9”. Further, the “antimicrobial efficacy in words, gram-negative” value with Gram Negative bacteria (setting [11]) was “shows antimicrobial efficacy”. Besides, the “Gram Positive Referenced Microbial Activity” value in the test on Gram Positive bacteria (setting [3]) is given as 1.6; in the test with Gram Positive bacteria (setting [4]) it was 0.7; with Gram Positive bacteria (setting [5]) it was 1.3; with Gram Positive bacteria (setting [6]), 1.0; in the test with Gram Positive bacteria (setting [7]), 1.2; with Gram Positive bacteria (setting [8]), 0.2. For the same compound, the “Gram Positive Referenced Microbial Activity” value came out at 0.2 in the test with Gram Positive bacteria (setting [9]); 0.2 in the test on Gram Positive bacteria (setting [10]); 1.0 in the test with Gram Positive bacteria (setting [2]); 1.1 in the test on Gram Positive bacteria (compound 0.5 wt %, Surfonic L 24-9 1 wt %, 5 wt % DPGME, water, pH 4.5, aged 14 days); 1.0 in the test with Gram Positive bacteria (compound 0.5 wt %, Surfonic L 24-9 1 wt %, 5 wt % DPGME, water, pH 4.5, not aged). Moreover, in the test on Gram Positive bacteria (setting [11]), the “antimicrobial efficacy in words, gram-positive” value is recorded as “shows antimicrobial efficacy”.
